How the values were obtained:
[1] = tested on: HCl-EtOH-induced gastric lesions; assay: HCl-EtOH-induced gastric lesion model in mice; type: in vivo
Experimental: 3.5. HCl-EtOH-Induced Ulcer Model in Mice
The gastroprotective activity of the compounds was assessed in the EtOH-HCl-induced gastric lesion model. Male Swiss albino mice weighing 30 ± 3 g were used. The animals were fed on certified Champion diet with free access to water under standard conditions of 12 h dark-light period, 50% relative humidity, and 22 °C room temperature. The mice were randomly distributed into groups of 7–14 animals each and fasted for 24 h with free access to water before the oral administration of test samples by gavage. The purity of the tested compounds was higher than 95% by NMR analysis. To keep the animal numbers to a minimum, dose-response studies were performed with lapachol at 5, 10 and 50 mg/kg to set the conditions for single-dose comparison of gastroprotective effect. The tested compounds, lansoprazole (20 mg/kg) or the vehicle (12% Tween 80, 10 mL/kg) were administered orally by gavage. After 50 min, all groups were orally treated with 0.2 mL of a solution containing 60% EtOH-0.3 M HCl for gastric lesion induction. Animals were sacrificed by cervical dislocation 1 h after the administration of EtOH-HCl, and the stomachs excised and inflated by injection of 5% formalin (1 mL). The ulcerated stomachs were fixed in 5% formalin for 30 min and opened along the greater curvature. The length (mm) of each lesion was measured, and the lesion index expressed as the sum of the length of all lesions. Based on previous studies on the parent diterpenes, comparison of the new compounds 1–12 was carried out at a single oral dose of 5 mg/kg. The protocols were approved by the Universidad de Talca Institutional Animal Care and Use Committee, which follows the recommendations of the Canadian Council on Animal Care. Tween 80 and lansoprazole (>98% purity by HPLC) were purchased from Sigma-Aldrich.
Results were expressed as the mean ± SEM. In all experiments, statistical differences between several treatments and their respective control were determined by one-way ANOVA with Student-Newman-Keuls post-hoc test. The level of significance was set at P < 0.05.

MRC-5 fibroblasts = assay: Basal cytotoxicity, neutral red uptake assay, MRC-5; type: cell-based; settings: Homo sapiens, MRC5, MRC-5, confluent cultures, 24 h, read-out: IC50 ± SEM, Fibroblasts
Experimental: (§1) 3.6. Cytotoxicity Assay
(§2) The human cell lines MRC-5 normal lung fibroblasts (ATCC CCL-171), AGS gastric adenocarcinoma cells (ATCC CRL-1739), and Hep G2 hepatocellular carcinoma cells (ATCC HB-8065) were obtained from the American Type Culture Collection (ATCC, Manassas, VA, USA). The cells were grown as monolayers in the following media: MRC-5 and Hep G2 in minimum essential Eagle’s medium (MEM), with Earle’s salts, 2.0 mM L-glutamine (Sigma Chemical Co.) and 2.2 g/L sodium bicarbonate (Sigma Chemical Co.), supplemented with 10% heat-inactivated fetal bovine serum (FBS), 100 IU/mL penicillin, and 100 µg/mL streptomycin in a humidified incubator with 5% CO2 in air at 37 °C. Cell passage was maintained between 10 and 16 for MRC-5 and between 79 and 82 for Hep G2 cells. The medium was changed every 2 days. Culture media, antibiotics, and FBS were obtained from Invitrogen Corp. Human gastric adenocarcinoma cells AGS (ATCC CRL-1739) were grown as monolayers in Ham F-12 medium containing 1.0 mM L-glutamine and 1.5 g/L sodium bicarbonate, supplemented with 10% heat-inactivated FBS, 100 IU/mL penicillin, and 100 µg/mL streptomycin in a humidified incubator with 5% CO2 in air at 37 °C. Cell passage was maintained between 42 and 48. The medium was changed every 2 days.
(§3) Confluent cultures of the different cell lines were treated with medium containing the compounds at concentrations ranging from 1 up to 1,000 µM. The antisecretory drug lansoprazole was used as reference compound. The substances were first dissolved in DMSO and then in the corresponding culture medium supplemented with 2% FBS. The final concentration of DMSO in the test medium and controls was 1%. The cells were exposed for 24 h to test medium with or without the compound (control). Each concentration was tested in quadruplicate together with the control and repeated three times in separate experiments. At the end of the incubation the neutral red uptake assay was performed.

AGS cells = assay: Basal cytotoxicity, neutral red uptake assay, AGS; type: cell-based; settings: Homo sapiens, confluent cultures, 24 h, read-out: IC50 ± SEM, AGS
Experimental: as §1, §2, §3

Hep G2 cells = assay: Basal cytotoxicity, neutral red uptake assay, Hep G2; type: cell-based; settings: Homo sapiens, HepG2, Hep G2, confluent cultures, 24 h, read-out: IC50 ± SEM, Hep G2
Experimental: as §1, §2, §3

[2] = Basal cytotoxicity, cell lines not separated in the text; type: cell-based; settings: human; stated in text without cell line
Experimental: as §1
The human cell lines MRC-5 normal lung fibroblasts (ATCC CCL-171), AGS gastric adenocarcinoma cells (ATCC CRL-1739), and Hep G2 hepatocellular carcinoma cells (ATCC HB-8065) were obtained from the American Type Culture Collection (ATCC, Manassas, VA, USA). The cells were grown as monolayers in the following media: MRC-5 and Hep G2 in minimum essential Eagle’s medium (MEM), with Earle’s salts, 2.0 mM L-glutamine (Sigma Chemical Co.) and 2.2 g/L sodium bicarbonate (Sigma Chemical Co.), supplemented with 10% heat-inactivated fetal bovine serum (FBS), 100 IU/mL penicillin, and 100 µg/mL streptomycin in a humidified incubator with 5% CO2 in air at 37 °C. Cell passage was maintained between 10 and 16 for MRC-5 and between 79 and 82 for Hep G2 cells. The medium was changed every 2 days. Culture media, antibiotics, and FBS were obtained from Invitrogen Corp. Human gastric adenocarcinoma cells AGS (ATCC CRL-1739) were grown as monolayers in Ham F-12 medium containing 1.0 mM L-glutamine and 1.5 g/L sodium bicarbonate, supplemented with 10% heat-inactivated FBS, 100 IU/mL penicillin, and 100 µg/mL streptomycin in a humidified incubator with 5% CO2 in air at 37 °C. Cell passage was maintained between 42 and 48. The medium was changed every 2 days. […]

[3] = Mus musculus, 1 h, mice, single oral dose of 5 mg/kg, read-out: Protected stomachs (number of stomachs completely protected from any visible bleeding) (converted)
[4] = Mus musculus, 1 h, mice, single oral dose of 5 mg/kg, read-out: Protection (%)
[5] = mice, single oral dose of 5 mg/kg

| Compound | responders at 5 mg/kg [1, 3] [%] | inhibition in vivo at 5 mg/kg [1, 4] [%] | Lesion index (mm) Mean ± SEM [1, 5] [mm] | IC50 (MRC-5 fibroblasts) [µM] | IC50 (AGS cells) [µM] | IC50 (Hep G2 cells) [µM] | Gastroprotective effect compared with the vehicle control (Tween 80) ([1]; mice, 5, 10 and 50 mg/kg, data not shown) | responders at 20 mg/kg ([1]; Mus musculus, 1 h, mice, oral, 20 mg/kg, read-out: Protected stomachs (number of stomachs completely protected from any visible bleeding) (converted)) [%] | inhibition in vivo at 20 mg/kg ([1]; Mus musculus, 1 h, mice, oral, 20 mg/kg, read-out: Protection (%)) [%] | Lesion index (mm) Mean ± SEM ([1]; mice, oral, 20 mg/kg) [mm] | IC50 at 24 h [2] [µM] |
| --- | --- | --- | --- | --- | --- | --- | --- | --- | --- | --- | --- |
| CC1=C(CC[C@@H](C)CC(=O)OC2=C(CCC(C)C)C(=O)c3ccccc3C2=O)[C@@]2(C)CCC[C@](C)(C(=O)O)C2CC1 (stereo partly shown) [Compound 9, Dihydroprenyl lapachoyl Δ8(9) junicedrate] | 0 | 64 | 15.7 ± 4.5 | 341 ± 17 | 294 ± 15 | > 1000 | – | – | – | – | – |
| CC(C)=CCC1=C(O)C(=O)c2ccccc2C1=O [Lapachol (IV), 2-hydroxy-3-(3-methyl-2-butenyl)-[1,4]-naphthoquinone, reference compound] | – | – | – | > 1000 | 382 ± 15 | 55 ± 3 | did not present a statistically significant effect | – | – | – | – |
| C=C1CCC2[C@](C)(CCC[C@]2(C)C(=O)OC)[C@H]1CC[C@@H](C)CC(=O)OC1=C(CCC(C)C)C(=O)c2ccccc2C1=O (stereo partly shown) [Compound 4, Dihydroprenyl lapachoyl junicedrate methyl ester] | 0 | 55 | 19.3 ± 5.0 | > 1000 | 382 ± 26 | > 1000 | – | – | – | – | – |
| C=C1CCC2[C@](C)(CCC[C@]2(C)C(=O)O)[C@H]1CC[C@@H](C)CC(=O)O (stereo partly shown) [Junicedric acid (I), junicedric acid, reference compound] | – | – | – | 181 ± 9 | 304 ± 18 | > 1000 | – | – | – | – | – |
| Cc1c(OCC(F)(F)F)ccnc1C[S+]([O-])c1nc2ccccc2[nH]1 (stereo not shown) [Lansoprazole, lansoprazole, reference compound] | – | – | – | 306 ± 11 | 162 ± 6 | 221 ± 9 | – | 66.7 | 73 | 9.4 ± 1.2 | – |
| CC(C)=CCC1=C(OC(=O)C[C@H](C)CCC2[C@@H](C)CCC3[C@]2(C)CCC[C@]3(C)C(=O)O)C(=O)c2ccccc2C1=O (stereo partly drawn) [Compound 11, Lapachoyl 17β-dihydrojunicedrate] | 0 | 6 | 23.5 ± 3.6 | 336 ± 15 | 114 ± 7 | 54.5 ± 5 | – | – | – | – | – |
| COC(=O)[C@@]1(C)CCC[C@]2(C)C(CC[C@@H](C)CC(=O)OC3=C(CC=C(C)C)C(=O)c4ccccc4C3=O)[C@@H](C)CCC21 (stereo partly drawn) [Compound 12, Lapachoyl 17β-dihydrojunicedrate methyl ester] | 0 | – | 27.4 ± 6.8 | 926 ± 35 | 323 ± 16 | 290 ± 9 | – | – | – | – | – |
| CC(C)=CCC1=C(OC(=O)C[C@H](C)CCC2=C(C)CCC3[C@@](C)(C(=O)O)CCC[C@]23C)C(=O)c2ccccc2C1=O (stereo partly shown) [Compound 7, Lapachoyl Δ8(9) junicedrate] | 12.5 | 54 | 11.5 ± 4.4 | 190 ± 8 | 179 ± 9 | 96 ± 9 | – | – | – | – | – |
| C=C1CCC2[C@](C)(CCC[C@]2(C)C(=O)O)[C@H]1CC[C@@H](C)CC(=O)OC1=C(CCC(C)C)C(=O)c2ccccc2C1=O (stereo partly shown) [Compound 3, Dihydroprenyl lapachoyl junicedrate] | 0 | 59 | 17.9 ± 4.6 | 156 ± 9 | 89 ± 5 | > 1000 | – | – | – | – | – |
| C=C1CCC2[C@](C)(CCC[C@]2(C)C(=O)OC)[C@H]1CC[C@@H](C)CC(=O)OC1=C(CCC(C)C)C(=O)C2=C(CCCC2)C1=O (stereo partly shown) [Compound 6, Dihydroprenyl-5,6,7,8-tetrahydrolapachoyl junicedrate methyl ester] | 37.5 | 74 | 6.5 ± 2.7 | > 1000 | > 1000 | > 1000 | – | – | – | – | > 1000 |
| C=C1CCC2[C@](C)(CCC[C@]2(C)C(=O)O)[C@H]1CC[C@@H](C)CC(=O)OC1=C(CCC(C)C)C(=O)C2=C(CCCC2)C1=O (stereo partly shown) [Compound 5, Dihydroprenyl-5,6,7,8-tetrahydrolapachoyl junicedrate] | 0 | 18 | 20.4 ± 3.6 | 69 ± 3 | 40 ± 6 | 27 ± 1 | – | – | – | – | – |
| C=C1CCC2[C@](C)(CCC[C@]2(C)C(=O)OC)[C@H]1CC[C@@H](C)CC(=O)OC1=C(CC=C(C)C)C(=O)c2ccccc2C1=O (stereo partly shown) [Compound 2, Lapachoyl junicedrate methyl ester] | 44.4 | 65 | 8.7 ± 3.9 | 741 ± 40 | 361 ± 19 | 208 ± 11 | – | – | – | – | – |
| COC(=O)[C@@]1(C)CCC[C@]2(C)C(CC[C@@H](C)CC(=O)OC3=C(CCC(C)C)C(=O)c4ccccc4C3=O)=C(C)CCC12 (stereo partly shown) [Compound 10, Dihydroprenyl lapachoyl Δ8(9) junicedrate methyl ester] | 33.3 | 76 | 10.2 ± 3.5 | > 1000 | 162 ± 10 | > 1000 | – | – | – | – | – |
| C=C1CCC2[C@](C)(CCC[C@]2(C)C(=O)O)[C@H]1CC[C@@H](C)CC(=O)OC1=C(CC=C(C)C)C(=O)c2ccccc2C1=O (stereo partly shown) [Compound 1, Lapachoyl junicedrate] | – | 44 | 15.3 ± 5.0 | 210 ± 13 | 170 ± 9 | 57.4 ± 4.4 | – | – | – | – | – |
| COC(=O)[C@@]1(C)CCC[C@]2(C)C(CC[C@@H](C)CC(=O)OC3=C(CC=C(C)C)C(=O)c4ccccc4C3=O)=C(C)CCC12 (stereo partly shown) [Compound 8, Lapachoyl Δ8(9) junicedrate methyl ester] | 55.6 | 84 | 3.9 ± 1.9 | > 1000 | 721 ± 35 | 379 ± 21 | – | – | – | – | – |
| CC1=C(CC[C@@H](C)CC(=O)O)[C@@]2(C)CCC[C@](C)(C(=O)O)C2CC1 (stereo partly shown) [Δ8(9) junicedric acid (II), Δ8(9) Junicedric acid, reference compound] | 44.4 | 79 | 5.3 ± 2.4 | 214 ± 32 | 343 ± 22 | > 1000 | – | – | – | – | – |
| COc1cc([C@@H]2c3cc4c(cc3[C@@H](O[C@@H]3O[C@@H]5CO[C@@H](C)O[C@H]5[C@H](O)[C@H]3O)[C@H]3COC(=O)[C@H]23)OCO4)cc(OC)c1O [Etoposide, reference compound] | – | – | – | – | 0.58 ± 0.02 | – | – | – | – | – | – |

Source: paper PMC6264310, “Synthesis and Pharmacological Activity of Diterpenylnaphthoquinone Derivatives” (Molecules, 2011)
